Reference: patent publication US9890166B2, “Imidazopyrrolidine derivatives and their use in the treatment of disease” (NOVARTIS AG, priority 2013, dated 2018)

Tests used:
BRD4 (His-Brd4(44-477)) = BRD4 (His-Brd4(44-477)) (Homo sapiens (Human), UniProt O60885); test: TR-FRET in-vitro binding assay for BRD4; conditions: single determination or n ≧ 2 independent determinations, read-out: Biochemical IC50 BRD4
In short: (§1)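 TR-FRET binding with His-tagged bromodomain constructs, 8-point compound dilutions from 10 mM DMSO stocks. Reactions incubated 35 min at 30° C in 13.55 μL, read on an EnVision multilabel reader.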

[1] = target: nuclear BRD4-NUT foci in HCC2494 NUT midline carcinoma cells (Homo sapiens, UniProt O60885); test: cell-based
BRD2 (His-Brd2(60-472)) = BRD2 (His-Brd2(60-472)) (Homo sapiens (Human), UniProt P25440); test: TR-FRET in-vitro binding assay for BRD2; conditions: single determination or n ≧ 2 independent determinations, read-out: Biochemical IC50 BRD2
BRD2 (His-Brd2(60-472)), sequence (P25440 60-472): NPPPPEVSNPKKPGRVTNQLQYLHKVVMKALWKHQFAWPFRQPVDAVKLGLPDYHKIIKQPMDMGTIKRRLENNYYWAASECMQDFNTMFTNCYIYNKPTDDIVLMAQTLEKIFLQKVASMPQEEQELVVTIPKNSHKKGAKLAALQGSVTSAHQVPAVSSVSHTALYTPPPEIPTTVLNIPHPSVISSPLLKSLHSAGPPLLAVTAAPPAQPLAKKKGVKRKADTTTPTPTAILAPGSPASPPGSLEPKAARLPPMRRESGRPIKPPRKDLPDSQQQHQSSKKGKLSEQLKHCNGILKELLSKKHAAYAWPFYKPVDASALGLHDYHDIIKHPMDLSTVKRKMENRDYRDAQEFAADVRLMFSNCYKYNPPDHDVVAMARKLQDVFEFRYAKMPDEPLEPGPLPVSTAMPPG
In short: as §1

BRD3 (His-Brd3(20-477)) = BRD3 (His-Brd3(20-477)) (Homo sapiens (Human), UniProt Q15059); test: TR-FRET in-vitro binding assay for BRD3; conditions: single determination or n ≧ 2 independent determinations, read-out: Biochemical IC50 BRD3
BRD3 (His-Brd3(20-477)), sequence (Q15059 20-477): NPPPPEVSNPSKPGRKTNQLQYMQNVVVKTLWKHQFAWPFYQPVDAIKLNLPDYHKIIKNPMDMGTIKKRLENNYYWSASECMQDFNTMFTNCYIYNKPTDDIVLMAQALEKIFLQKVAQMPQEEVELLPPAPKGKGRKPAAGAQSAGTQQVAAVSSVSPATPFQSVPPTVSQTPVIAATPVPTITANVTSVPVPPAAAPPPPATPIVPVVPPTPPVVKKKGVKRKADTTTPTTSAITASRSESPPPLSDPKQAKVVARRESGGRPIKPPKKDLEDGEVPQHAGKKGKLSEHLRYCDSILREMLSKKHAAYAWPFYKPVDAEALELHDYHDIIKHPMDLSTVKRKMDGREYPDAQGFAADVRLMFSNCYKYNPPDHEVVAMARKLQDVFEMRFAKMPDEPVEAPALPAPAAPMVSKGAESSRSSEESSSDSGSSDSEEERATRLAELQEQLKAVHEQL
In short: as §1

[2] = target: CREBBP bromodomain (His-CREBBP(1081-1197)) (Homo sapiens (Human), UniProt Q92793); test: AlphaScreen in-vitro binding assay for CREBBP; conditions: single determination or n ≧ 2 independent determinations, read-out: Biochemical IC50 CREBBP
CREBBP bromodomain (His-CREBBP(1081-1197)), sequence (Q92793 1081-1197): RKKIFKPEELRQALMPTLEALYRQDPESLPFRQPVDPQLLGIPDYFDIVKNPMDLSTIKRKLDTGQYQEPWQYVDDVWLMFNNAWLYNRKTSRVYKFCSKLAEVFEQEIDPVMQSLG
In short: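 Reactions at 30 °C for 35 min, then Ni-chelate acceptor and streptavidin donor beads in HEPES pH 7.5, NaCl, Tween20, BSA, 60 min at room temperature. Eight-point compound series; IC50 by non-linear regression of percent inhibition.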

THP-1 cells = test: Cell growth inhibition assay (CellTiter-Glo), THP-1; conditions: for GI50: Homo sapiens, THP-1, read-out: THP-1 GI50; for THP-1 TGI: THP-1 cells, total growth inhibition, CellTiter-Glo;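 as to all read-outs here: viability read as cellular ATP luminescence after 4 days, 3-fold dilution series from 10 µM, DMSO vehicle-treated cells taken as 100%, cell-free medium wells as −100%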
K-562 cells = test: Cell growth inhibition assay (CellTiter-Glo), K-562; conditions: for GI50: Homo sapiens, K562, read-out: K-562 GI50; for K-562 TGI: K-562 cells, total growth inhibition, CellTiter-Glo;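 as to all read-outs here: cellular ATP measured by luminescence after 4 days of exposure, 3-fold dilution series from 10 µM, DMSO vehicle-treated cells define 100%, cell-free medium wells −100%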
MV-4-11 cells = test: Cell growth inhibition assay (CellTiter-Glo), MV-4-11; conditions: for GI50: Homo sapiens, MV4-11, read-out: MV-4-11 GI50; for MV-4-11 TGI: MV-4-11 cells, total growth inhibition, CellTiter-Glo;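 as to all read-outs here: cellular ATP luminescence after 4 days, 3-fold dilution series from 10 µM top dose, vehicle (0.1% DMSO) set to 100%, cell-free medium set to −100%, day 0 corrected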

CC(C)n1c(-c2cnoc2)nc2c1C(c1ccc(Cl)cc1)N(c1ccc(=O)n(C)c1)C2=O (stereo not shown) [Example 19, 6-(4-chlorophenyl)-1-isopropyl-2-(isoxazol-4-yl)-5-(1-methyl-6-oxo-1,6-dihydropyridin-3-yl)-5,6-dihydropyrrolo[3,4-d]imidazol-4(1H)-one]
IC50 (BRD4 (His-Brd4(44-477))): 220 nM
IC50 [1]: > 10000 nM

Cc1cc(N2C(=O)c3nc(C)n(C(C)C)c3C2c2ccc(Cl)cc2)nn2c(C(F)F)nnc12 (stereo not shown) [Example 150, 6-(4-chlorophenyl)-5-(3-(difluoromethyl)-8-methyl-[1,2,4]triazolo[4,3-b]pyridazin-6-yl)-1-isopropyl-2-methyl-5,6-dihydropyrrolo[3,4-d]imidazol-4(1H)-one]
IC50 (BRD4 (His-Brd4(44-477))): 38 nM
IC50 (BRD2 (His-Brd2(60-472))): 94 nM
IC50 (BRD3 (His-Brd3(20-477))): 39 nM
IC50 [2]: > 37000 nM
GI50 (THP-1 cells): 17.3 nM
THP-1 TGI (THP-1 cells): 46.4 nM
GI50 (K-562 cells): 75.3 nM
K-562 TGI (K-562 cells): >10000 nM
GI50 (MV-4-11 cells): 9.63 nM
MV-4-11 TGI (MV-4-11 cells): 24.2 nM

Cc1cc(N2C(=O)c3nc(C)n(C(C)C)c3[C@H]2c2ccc(Cl)cc2)cn2c(C)nnc12 [Example 59, (R)-6-(4-chlorophenyl)-5-(3,8-dimethyl-[1,2,4]triazolo[4,3-a]pyridin-6-yl)-1-isopropyl-2-methyl-5,6-dihydropyrrolo[3,4-d]imidazol-4(1H)-one]
IC50 (BRD4 (His-Brd4(44-477))): 30 nM
IC50 (BRD2 (His-Brd2(60-472))): 48 nM
IC50 (BRD3 (His-Brd3(20-477))): 34 nM
IC50 [2]: 5700 nM
GI50 (THP-1 cells): 41 nM
THP-1 TGI (THP-1 cells): 114 nM
GI50 (K-562 cells): 117 nM
K-562 TGI (K-562 cells): >10000 nM
GI50 (MV-4-11 cells): 17.8 nM
MV-4-11 TGI (MV-4-11 cells): 34.9 nM

Cc1cc(N2C(=O)c3nc(C4CCOCC4)n(C(C)C)c3[C@H]2c2ccc(Cl)cc2)cc2c1nnn2C [Example 82, (R)-6-(4-chlorophenyl)-5-(1,4-dimethyl-1H-benzo[d][1,2,3]triazol-6-yl)-1-isopropyl-2-(tetrahydro-2H-pyran-4-yl)-5,6-dihydropyrrolo[3,4-d]imidazol-4(1H)-one]
IC50 (BRD4 (His-Brd4(44-477))): < 11 nM
IC50 (BRD2 (His-Brd2(60-472))): 13 nM
IC50 (BRD3 (His-Brd3(20-477))): < 11 nM
IC50 [2]: 1080 nM
GI50 (THP-1 cells): 2.54 nM
THP-1 TGI (THP-1 cells): 9.82 nM
GI50 (K-562 cells): 8.96 nM
K-562 TGI (K-562 cells): >10000 nM
GI50 (MV-4-11 cells): 1.57 nM
MV-4-11 TGI (MV-4-11 cells): 6.03 nM

Cc1cc(N2C(=O)c3nc(C4=CCN(C)CC4)[nH]c3C2c2ccc(Cl)cc2)cn(C)c1=O (stereo not shown) [Example 135, 6-(4-chlorophenyl)-5-(1,5-dimethyl-6-oxo-1,6-dihydropyridin-3-yl)-2-(1-methyl-1,2,3,6-tetrahydropyridin-4-yl)-5,6-dihydropyrrolo[3,4-d]imidazol-4(1H)-one]
IC50 (BRD4 (His-Brd4(44-477))): 31 nM
IC50 (BRD2 (His-Brd2(60-472))): 53 nM
IC50 (BRD3 (His-Brd3(20-477))): 37 nM
IC50 [2]: 3850 nM
GI50 (THP-1 cells): 265 nM
THP-1 TGI (THP-1 cells): 964 nM
GI50 (K-562 cells): 806 nM
K-562 TGI (K-562 cells): >10000 nM
GI50 (MV-4-11 cells): 64.9 nM
MV-4-11 TGI (MV-4-11 cells): 111.5 nM

Cc1cc(N2C(=O)c3nc(C4=CCOCC4)n(C(C)C)c3C2c2ccc(Cl)cc2)cn2c(CF)nnc12 (stereo not shown) [Example 88, 6-(4-chlorophenyl)-2-(3,6-dihydro-2H-pyran-4-yl)-5-(3-(fluoromethyl)-8-methyl-[1,2,4]triazolo[4,3-a]pyridin-6-yl)-1-isopropyl-5,6-dihydropyrrolo[3,4-d]imidazol-4(1H)-one]
IC50 (BRD4 (His-Brd4(44-477))): 39 nM
IC50 (BRD2 (His-Brd2(60-472))): 75 nM
IC50 (BRD3 (His-Brd3(20-477))): 43 nM
IC50 [2]: 15000 nM
GI50 (THP-1 cells): 42.8 nM
THP-1 TGI (THP-1 cells): 112.1 nM
GI50 (K-562 cells): 172 nM
K-562 TGI (K-562 cells): >10000 nM
GI50 (MV-4-11 cells): 23.7 nM
MV-4-11 TGI (MV-4-11 cells): 39.85 nM

COc1ncccc1-c1nc2c(n1C(C)C)C(c1ccc(Cl)cc1)N(c1cc(OC)c3nnn(C)c3c1)C2=O (racemic) [Example 74, 6-(4-chlorophenyl)-1-isopropyl-5-(4-methoxy-1-methyl-1H-benzo[d][1,2,3]triazol-6-yl)-2-(2-methoxypyridin-3-yl)-5,6-dihydropyrrolo[3,4-d]imidazol-4(1H)-one]
IC50 (BRD4 (His-Brd4(44-477))): 32 nM
IC50 (BRD2 (His-Brd2(60-472))): 140 nM
IC50 (BRD3 (His-Brd3(20-477))): 61 nM
IC50 [2]: 10300 nM
GI50 (THP-1 cells): 57.9 nM
THP-1 TGI (THP-1 cells): 121 nM
GI50 (K-562 cells): 158 nM
K-562 TGI (K-562 cells): >10000 nM
GI50 (MV-4-11 cells): 38.2 nM
MV-4-11 TGI (MV-4-11 cells): 59.25 nM

CCCn1c(-c2cc(OC)ncc2F)nc2c1C(=O)N(c1cc(C)c(=O)n(C)c1)C2c1ccc(Cl)cc1 (stereo not shown) [Example 36, 6-(4-chlorophenyl)-5-(1,5-dimethyl-6-oxo-1,6-dihydropyridin-3-yl)-2-(5-fluoro-2-methoxypyridin-4-yl)-3-propyl-5,6-dihydropyrrolo[3,4-d]imidazol-4(3H)-one]
IC50 (BRD4 (His-Brd4(44-477))): 150 nM
IC50 (BRD2 (His-Brd2(60-472))): 164 nM
IC50 (BRD3 (His-Brd3(20-477))): 160 nM
IC50 [2]: 2500 nM
GI50 (THP-1 cells): 115 nM
THP-1 TGI (THP-1 cells): 235 nM
GI50 (K-562 cells): 250 nM
K-562 TGI (K-562 cells): >10000 nM
GI50 (MV-4-11 cells): 59.8 nM
MV-4-11 TGI (MV-4-11 cells): 104 nM

Cc1cc(N2C(=O)c3nc(C4=CCOCC4)[nH]c3[C@H]2c2ccc(Cl)cc2)cn2c(C)nnc12 [Example 167, (R)-6-(4-chlorophenyl)-2-(3,6-dihydro-2H-pyran-4-yl)-5-(3,8-dimethyl-[1,2,4]triazolo[4,3-a]pyridin-6-yl)-5,6-dihydropyrrolo[3,4-d]imidazol-4(1H)-one]
IC50 (BRD4 (His-Brd4(44-477))): 35 nM
IC50 (BRD2 (His-Brd2(60-472))): 63 nM
IC50 (BRD3 (His-Brd3(20-477))): 53 nM
IC50 [2]: 1650 nM
GI50 (THP-1 cells): 103 nM
THP-1 TGI (THP-1 cells): 188.5 nM
GI50 (K-562 cells): 537 nM
K-562 TGI (K-562 cells): >10000 nM
GI50 (MV-4-11 cells): 33.6 nM
MV-4-11 TGI (MV-4-11 cells): 57.85 nM

Cc1nc2c([nH]1)C(c1ccc(Cl)cc1)N(c1cc(C)c3nnc(C(F)F)n3c1)C2=O (stereo not shown) [Example 139, 6-(4-chlorophenyl)-5-(3-(difluoromethyl)-8-methyl-[1,2,4]triazolo[4,3-a]pyridin-6-yl)-2-methyl-5,6-dihydropyrrolo[3,4-d]imidazol-4(1H)-one]
IC50 (BRD4 (His-Brd4(44-477))): 32.5 nM
IC50 (BRD2 (His-Brd2(60-472))): 86 nM
IC50 (BRD3 (His-Brd3(20-477))): 42 nM
IC50 [2]: > 37000 nM
GI50 (THP-1 cells): 40.7 nM
THP-1 TGI (THP-1 cells): 115.5 nM
GI50 (K-562 cells): 214 nM
K-562 TGI (K-562 cells): >10000 nM
GI50 (MV-4-11 cells): 57.5 nM
MV-4-11 TGI (MV-4-11 cells): 99.2 nM

COc1ncccc1-c1nc2c([nH]1)[C@@H](c1ccc(Cl)cc1)N(c1cc(C)c(=O)n(C)c1)C2=O [Example 156, (R)-6-(4-chlorophenyl)-5-(1,5-dimethyl-6-oxo-1,6-dihydropyridin-3-yl)-2-(2-methoxypyridin-3-yl)-5,6-dihydropyrrolo[3,4-d]imidazol-4(1H)-one]
IC50 (BRD4 (His-Brd4(44-477))): 25 nM
IC50 (BRD2 (His-Brd2(60-472))): 32 nM
IC50 (BRD3 (His-Brd3(20-477))): 29.5 nM
IC50 [2]: 260 nM
GI50 (THP-1 cells): 43.4 nM
THP-1 TGI (THP-1 cells): 99 nM
GI50 (K-562 cells): 122 nM
K-562 TGI (K-562 cells): >10000 nM
GI50 (MV-4-11 cells): 25.4 nM
MV-4-11 TGI (MV-4-11 cells): 51.35 nM

COc1cc(N2C(=O)c3nc(C)n(C(C)C)c3C2c2ccc(Cl)cc2)cc2c1nnn2C (stereo not shown) [Example 63]
IC50 (BRD4 (His-Brd4(44-477))): 72 nM
IC50 (BRD2 (His-Brd2(60-472))): 240 nM
IC50 (BRD3 (His-Brd3(20-477))): 96.5 nM
IC50 [2]: 21900 nM
GI50 (THP-1 cells): 192 nM
THP-1 TGI (THP-1 cells): 369 nM
GI50 (K-562 cells): 458 nM
K-562 TGI (K-562 cells): >10000 nM
GI50 (MV-4-11 cells): 88.2 nM
MV-4-11 TGI (MV-4-11 cells): 141 nM
